In PubChem BioAssay (NCI):
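1) Cells in 96-well plates. 2) Compound, 48 h, 5 concentrations. 3) Linear interpolation between surrounding doses. 4) Unreached endpoint = highest concentration. Here, GI50 denotes the concentration required for 50% inhibition of growth. TGI marks complete inhibition of growth.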

How the values were obtained:
Experiment in all cases: DTP human tumour cell line panel, 48 h
[1] = system: HL-60(TB) leukemia
[2] = system: HS 578T breast
[3] = system: IGROV1 ovarian
[4] = system: HCT-116 colon
[5] = system: MCF7 breast
[6] = system: MDA-MB-231 breast
[7] = system: OVCAR-8 ovarian
[8] = system: K-562 leukemia
[9] = system: NCI-H226 lung
[10] = system: RXF 393 renal
[11] = system: UACC-257 melanoma
[12] = system: HCC-2998 colon
[13] = system: MDA-MB-435
[14] = system: UO-31 renal
[15] = system: BT-549 breast
[16] = system: PC-3 prostate
[17] = system: CCRF-CEM leukemia
[18] = system: ACHN renal
[19] = system: HOP-62 NSCLC
[20] = system: SW-620 colon
[21] = system: M14 melanoma
[22] = system: RPMI-8226 leukemia
[23] = system: NCI-H460 lung
[24] = system: NCI/ADR-RES ovarian
[25] = system: SK-MEL-2 melanoma
[26] = system: U251 CNS
[27] = system: OVCAR-5 ovarian
[28] = system: SR leukemia
[29] = system: KM12 colon
[30] = system: A498 renal
[31] = system: HCT-15 colon
[32] = system: NCI-H522 lung
[33] = system: UACC-62 melanoma
[34] = system: A549 NSCLC
[35] = system: SF-268 CNS
[36] = system: SF-295 CNS
[37] = system: SK-MEL-5 melanoma
[38] = system: DU-145 prostate
[39] = system: OVCAR-4 ovarian
[40] = system: LOX IMVI melanoma
[41] = system: EKVX NSCLC
[42] = system: SF-539 CNS
[43] = system: MALME-3M melanoma
[44] = system: 786-0 renal
[45] = system: SN12C renal
[46] = system: TK-10 renal
[47] = system: HOP-92 NSCLC
[48] = system: MOLT-4 leukemia
[49] = system: OVCAR-3 ovarian
[50] = system: CAKI-1 renal
[51] = system: NCI-H23 lung
[52] = system: SNB-75 CNS
[53] = system: SK-MEL-28 melanoma
[54] = system: SNB-19 CNS
[55] = system: SK-OV-3 ovarian
[56] = system: HT29 colon
[57] = system: COLO 205 colon

SMILES: Cc1ccc(C2=C(c3ccccc3)C(c3ccccc3)Oc3ccc(C)cc32)cc1 (stereo not drawn)
- GI50 [1]: 11 µM
- TGI [1]: 40.7 µM
- GI50 [2]: 2.74 µM
- TGI [2]: 10.1 µM
- GI50 [3]: 2.49 µM
- TGI [3]: 7.1 µM
- GI50 [4]: 1.68 µM
- TGI [4]: 3.43 µM
- GI50 [5]: 3.33 µM
- TGI [5]: 13.1 µM
- GI50 [6]: 13 µM
- TGI [6]: 30.5 µM
- GI50 [7]: 6.92 µM
- TGI [7]: 26.7 µM
- GI50 [8]: 8.29 µM
- TGI [8]: 42.7 µM
- GI50 [9]: 15.8 µM
- TGI [9]: 37.9 µM
- GI50 [10]: 3.37 µM
- TGI [10]: 13.3 µM
- GI50 [11]: 9.2 µM
- TGI [11]: 23.7 µM
- GI50 [12]: 1.64 µM
- TGI [12]: 3.1 µM
- GI50 [13]: 8.5 µM
- TGI [13]: 26.8 µM
- GI50 [14]: 4.37 µM
- TGI [14]: 17 µM
- GI50 [15]: 4.76 µM
- TGI [15]: 20.4 µM
- GI50 [16]: 12.8 µM
- TGI [16]: 34.4 µM
- GI50 [17]: 13.8 µM
- TGI [17]: 39 µM
- GI50 [18]: 16.6 µM
- TGI [18]: 31.2 µM
- GI50 [19]: 3.09 µM
- TGI [19]: 7.71 µM
- GI50 [20]: 3.79 µM
- TGI [20]: 13.2 µM
- GI50 [21]: 1.56 µM
- TGI [21]: 3.05 µM
- GI50 [22]: 6.97 µM
- TGI [22]: 41.3 µM
- GI50 [23]: 7.1 µM
- TGI [23]: 39.9 µM
- GI50 [24]: 2.18 µM
- TGI [24]: 5.35 µM
- GI50 [25]: 1.9 µM
- TGI [25]: 3.98 µM
- GI50 [26]: 14.8 µM
- TGI [26]: 28.5 µM
- GI50 [27]: 2.87 µM
- TGI [27]: 8.64 µM
- GI50 [28]: 16.5 µM
- TGI [28]: 38.4 µM
- GI50 [29]: 5.5 µM
- TGI [29]: 23.6 µM
- GI50 [30]: 1.56 µM
- TGI [30]: 5.32 µM
- GI50 [31]: 16.9 µM
- TGI [31]: 35.8 µM
- GI50 [32]: 2.28 µM
- TGI [32]: 5.63 µM
- GI50 [33]: 10 µM
- TGI [33]: 22.8 µM
- GI50 [34]: 3.87 µM
- TGI [34]: 10.7 µM
- GI50 [35]: 13.2 µM
- TGI [35]: 38.7 µM
- GI50 [36]: 3.66 µM
- TGI [36]: 13.8 µM
- GI50 [37]: 1.92 µM
- TGI [37]: 3.63 µM
- GI50 [38]: 3.56 µM
- TGI [38]: 12.5 µM
- GI50 [39]: 2.27 µM
- TGI [39]: 7.44 µM
- GI50 [40]: 13.8 µM
- TGI [40]: 32 µM
- GI50 [41]: 3.2 µM
- TGI [41]: 12.8 µM
- GI50 [42]: 6.29 µM
- TGI [42]: 20 µM
- GI50 [43]: 23.1 µM
- TGI [43]: 48.3 µM
- GI50 [44]: 2.17 µM
- TGI [44]: 4.74 µM
- GI50 [45]: 17.3 µM
- TGI [45]: 34.3 µM
- GI50 [46]: 13.7 µM
- TGI [46]: 32.4 µM
- GI50 [47]: 11.4 µM
- TGI [47]: 28.1 µM
- GI50 [48]: 8.86 µM
- TGI [48]: 31.5 µM
- GI50 [49]: 12.4 µM
- TGI [49]: 32.7 µM
- GI50 [50]: 12.7 µM
- TGI [50]: 31.4 µM
- GI50 [51]: 2.2 µM
- TGI [51]: 5.53 µM

SMILES: CC(=O)C1=C(C)N(C)C2(O)C=CC(=O)C3=C(O)c4ccccc4C(=O)C312 (stereo not drawn)
- GI50 [1]: > 100 µM
- TGI [1]: > 100 µM
- GI50 [2]: 7.23 µM
- TGI [2]: 40.5 µM
- GI50 [3]: 23.5 µM
- TGI [3]: > 100 µM
- GI50 [4]: 2.77 µM
- TGI [4]: 7.09 µM
- GI50 [5]: 12.2 µM
- TGI [5]: 36.1 µM
- GI50 [6]: 4.96 µM
- TGI [6]: 21.6 µM
- GI50 [7]: 24 µM
- TGI [7]: > 100 µM
- GI50 [8]: 3.14 µM
- TGI [8]: > 100 µM
- GI50 [9]: 16 µM
- TGI [9]: 31.9 µM
- GI50 [11]: 5.73 µM
- TGI [11]: > 100 µM
- GI50 [12]: 13.8 µM
- TGI [12]: 61.8 µM
- GI50 [13]: 2.12 µM
- TGI [13]: 3.89 µM
- GI50 [14]: 27 µM
- TGI [14]: > 100 µM
- GI50 [15]: 13.6 µM
- TGI [15]: 27.9 µM
- GI50 [16]: 3.42 µM
- TGI [16]: 15.9 µM
- GI50 [17]: 1.92 µM
- TGI [17]: > 100 µM
- GI50 [18]: 10.8 µM
- TGI [18]: 28.8 µM
- GI50 [19]: 5.16 µM
- TGI [19]: 18.4 µM
- GI50 [52]: 19.9 µM
- TGI [52]: 43.8 µM
- GI50 [20]: 4.41 µM
- TGI [20]: 33.5 µM
- GI50 [21]: 2.81 µM
- TGI [21]: 7.87 µM
- GI50 [22]: 3.02 µM
- TGI [22]: 31.5 µM
- GI50 [23]: 10.6 µM
- TGI [23]: 42 µM
- GI50 [53]: 19.4 µM
- TGI [53]: 47.3 µM
- GI50 [24]: 5.49 µM
- TGI [24]: > 100 µM
- GI50 [25]: 30.6 µM
- TGI [25]: > 100 µM
- GI50 [54]: 2.18 µM
- TGI [54]: 27 µM
- GI50 [55]: 6.9 µM
- TGI [55]: 32.4 µM
- GI50 [56]: 24.1 µM
- TGI [56]: > 100 µM
- GI50 [26]: 14 µM
- TGI [26]: 31.4 µM
- GI50 [27]: 22.1 µM
- TGI [27]: 66.1 µM
- GI50 [28]: > 100 µM
- TGI [28]: > 100 µM
- GI50 [30]: 0.0524 µM
- TGI [30]: 15.2 µM
- GI50 [31]: 5.41 µM
- TGI [31]: 21.7 µM
- GI50 [32]: 23.8 µM
- TGI [32]: > 100 µM
- GI50 [33]: 3.89 µM
- TGI [33]: 14 µM
- GI50 [34]: 23 µM
- TGI [34]: > 100 µM
- GI50 [35]: 9.29 µM
- TGI [35]: 23.6 µM
- GI50 [36]: 5.03 µM
- TGI [36]: 19.6 µM
- GI50 [37]: 2.51 µM
- TGI [37]: 9.02 µM
- GI50 [57]: 13.8 µM
- TGI [57]: 38 µM
- GI50 [38]: 5.27 µM
- TGI [38]: 21.8 µM
- GI50 [39]: 17.1 µM
- TGI [39]: 34.2 µM
- GI50 [41]: 15.3 µM
- TGI [41]: 33.4 µM
- GI50 [42]: 2.76 µM
- TGI [42]: 6.55 µM
- GI50 [43]: 1.51 µM
- TGI [43]: 4.01 µM
- GI50 [44]: 2.59 µM
- TGI [44]: 7.36 µM
- GI50 [45]: 3.13 µM
- TGI [45]: 8.81 µM
- GI50 [46]: 6.72 µM
- TGI [46]: 20.7 µM
- GI50 [47]: 2.61 µM
- TGI [47]: 8.48 µM
- GI50 [48]: 3.53 µM
- TGI [48]: > 100 µM
- GI50 [50]: 3.52 µM
- TGI [50]: 9.65 µM
- GI50 [51]: 5.21 µM
- TGI [51]: 46 µM
